Patent US20150141381A1, “TETRACYCLINE COMPOUNDS HAVING TARGET THERAPEUTIC ACTIVITIES” (Paratek Pharmaceuticals, Inc., priority 2001, published 2015)

What was measured:
[1] = tested on: E. coli mL308 225; assay: In Vitro Anti-Bacterial Activity Assay (MIC), gram negative; assay type: cell-based; conditions: Escherichia coli, ML308225, 18 h, MIC class, Table 3; read-out: Antibiotic Activity Gram −
[2] = tested on: S. aureus RN450; assay: In Vitro Anti-Bacterial Activity Assay (MIC), gram positive; assay type: cell-based; conditions: Staphylococcus aureus, RN450, 18 h, MIC class, Table 3; read-out: Antibiotic Activity Gram +

SMILES	MIC [1] [µg/mL]	MIC [2] [µg/mL]
CN1CCC(NCc2ccc(O)c3c2C[C@H]2C[C@H]4[C@H](N(C)C)C(O)=C(C(N)=O)C(=O)[C@@]4(O)C(O)=C2C3=O)CC1 [KY]	> 4	> 4
CN(C)c1cc(F)c(O)c2c1C[C@H]1C[C@H]3C(N(C)C)C(O)=C(C(N)=O)C(=O)[C@@]3(O)C(O)=C1C2=O (stereo partly shown) [KZ]	< 4	< 4
CN(C)Cc1ccc(-c2ccc(O)c3c2C[C@H]2C[C@H]4[C@@H](N(C)C)C(O)=C(C(N)=O)C(=O)[C@@]4(O)C(O)=C2C3=O)c2ccccc12 [K]	< 4	< 4
Cc1cc(CNCc2cc(N(C)C)c3c(c2O)C(=O)C2=C(O)[C@]4(O)C(=O)C(C(N)=O)=C(O)[C@@H](N(C)C)[C@@H]4C[C@@H]2C3)oc1C [LC]	< 4	< 4
CN(C)[C@@H]1C(O)=C(C(N)=O)C(=O)[C@@]2(O)C(O)=C3C(=O)c4c(O)ccc(CNC5CCNCC5)c4C[C@H]3C[C@@H]12 [LD]	> 4	> 4
CN(C)[C@@H]1C(O)=C(C(N)=O)C(=O)[C@@]2(O)C(O)=C3C(=O)c4c(ccc(NC5CCNCC5)c4O)C[C@H]3C[C@@H]12 [LE]	> 4	> 4
CN(C)[C@@H]1C(O)=C(C(N)=O)C(=O)[C@@]2(O)C(O)=C3C(=O)c4c(ccc(NC5CC(C)(C)NC(C)(C)C5)c4O)C[C@H]3C[C@@H]12 [LF]	> 4	< 4
CN(C)Cc1ccc(-c2cc(N(C)C)c3c(c2O)C(=O)C2=C(O)[C@]4(O)C(=O)C(C(N)=O)=C(O)[C@@H](N(C)C)[C@@H]4C[C@@H]2C3)o1 [LI]	> 4	< 4
CN(C)[C@@H]1C(O)=C(C(N)=O)C(=O)[C@@]2(O)C(O)=C3C(=O)c4c(O)ccc(-c5ccc(CNC6CCCCC6)o5)c4C[C@H]3C[C@@H]12 [LK]	< 4	< 4
CN(C)C1C(O)=C(C(N)=O)C(=O)[C@@]2(O)C(O)=C3C(=O)c4c(O)ccc(-c5ccc(CNCc6ccccc6)o5)c4C[C@H]3C[C@@H]12 (stereo partly shown) [LL]	< 4	< 4
CN(C)[C@H]1C(O)=C(C(N)=O)C(=O)[C@@]2(O)C(O)=C3C(=O)c4c(O)ccc(-c5ccc(CN6CCCC6)o5)c4C[C@H]3C[C@@H]12 [LM]	< 4	< 4
CN1CCN(Cc2ccc(-c3ccc(O)c4c3C[C@H]3C[C@H]5[C@@H](N(C)C)C(O)=C(C(N)=O)C(=O)[C@@]5(O)C(O)=C3C4=O)o2)CC1 [LN]	< 4	< 4
COc1ccc(CNC(C)C)cc1-c1ccc(O)c2c1C[C@H]1C[C@H]3[C@H](N(C)C)C(O)=C(C(N)=O)C(=O)[C@@]3(O)C(O)=C1C2=O [LR]	< 4	< 4
CCCCCC(=O)O[C@H]1[C@H]2C(=C(O)[C@]3(O)C(=O)C(C(N)=O)=C(O)[C@@H](N(C)C)[C@H]13)C(=O)c1c(O)cccc1[C@@H]2C [L]	> 4	< 4
CN(C)c1cc(CNC(=O)c2ccno2)c(O)c2c1C[C@H]1C[C@H]3C(N(C)C)C(O)=C(C(N)=O)C(=O)[C@@]3(O)C(O)=C1C2=O (stereo partly shown) [MB]	> 4	< 4
CN(C)[C@@H]1C(O)=C(C(N)=O)C(=O)[C@@]2(O)C(O)=C3C(=O)c4c(O)ccc(-c5ccc(CNC(C)(C)C)o5)c4C[C@H]3C[C@@H]12 [MD]	< 4	< 4
CN1CCN(Cc2ccc(-c3ccc(O)c4c3C[C@H]3C[C@H]5[C@H](N(C)C)C(O)=C(C(N)=O)C(=O)[C@@]5(O)C(O)=C3C4=O)cc2)CC1 [MF]	< 4	< 4
CN(C)c1cc(CNCC2CCCCC2)c(O)c2c1C[C@H]1C[C@H]3[C@H](N(C)C)C(O)=C(C(N)=O)C(=O)[C@@]3(O)C(O)=C1C2=O [MK]	< 4	< 4

SMILES	MIC [1] [µg/mL]	MIC [2] [µg/mL]
COC(=O)c1cc(N(C)C)c2c(c1O)C(=O)C1=C(O)[C@]3(O)C(=O)C(C(N)=O)=C(O)C(N(C)C)[C@@H]3C[C@@H]1C2 (stereo partly shown) [MO]	> 4	> 4
CC(=O)c1cc(N(C)C)c2c(c1O)C(=O)C1=C(O)[C@]3(O)C(=O)C(C(N)=O)=C(O)[C@@H](N(C)C)[C@@H]3C[C@@H]1C2 [MQ]	> 4	> 4
CN(C)C(=O)C(=O)c1ccc(O)c2c1C[C@H]1C[C@H]3C(N(C)C)C(O)=C(C(N)=O)C(=O)[C@@]3(O)C(O)=C1C2=O (stereo partly shown) [MR]	< 4	< 4
Cc1csc(NCc2cc(N(C)C)c3c(c2O)C(=O)C2=C(O)[C@]4(O)C(=O)C(C(N)=O)=C(O)C(N(C)C)[C@@H]4C[C@@H]2C3)n1 (stereo partly shown) [MS]	> 4	< 4
CCOC(=O)c1csc(NCc2cc(N(C)C)c3c(c2O)C(=O)C2=C(O)[C@]4(O)C(=O)C(C(N)=O)=C(O)C(N(C)C)[C@@H]4C[C@@H]2C3)n1 (stereo partly shown) [MT]	> 4	> 4
CN(C)C1C(O)=C(C(N)=O)C(=O)[C@@]2(O)C(O)=C3C(=O)c4c(O)c(CNCC(C)(C)C)cc(CNCC(C)(C)C)c4C[C@H]3C[C@@H]12 (stereo partly shown) [MU]	< 4	< 4
CN(C)c1cc(CNCc2ccccc2)c(O)c2c1C[C@H]1C[C@H]3[C@H](N(C)C)C(O)=C(C(N)=O)C(=O)[C@@]3(O)C(O)=C1C2=O [MW]	< 4	< 4
CN(C)[C@@H]1C(O)=C(C(N)=O)C(=O)[C@@]2(O)C(O)=C3C(=O)c4c(ccc(CNCC(C)(C)C)c4O)C[C@H]3C[C@@H]12 [MZ]	< 4	< 4
CN(C)[C@@H]1C(O)=C(C(N)=O)C(=O)[C@@]2(O)C(O)=C3C(=O)c4c(O)ccc(-c5ccc(/C=N/O)o5)c4C[C@H]3C[C@@H]12 [NA]	< 4	< 4
CN(C)C1C(O)=C(C(N)=O)C(=O)[C@@]2(O)C(O)=C3C(=O)c4c(O)ccc(CNC5CCCC5)c4C[C@H]3C[C@@H]12 (stereo partly shown) [NE]	< 4	< 4
CC(C)CNCc1ccc(O)c2c1C[C@H]1C[C@H]3C(N(C)C)C(O)=C(C(N)=O)C(=O)[C@@]3(O)C(O)=C1C2=O (stereo partly shown) [NF]	< 4	< 4
COC(=O)/C=C/c1ccc(O)c2c1C[C@H]1C[C@H]3[C@H](N(C)C)C(O)=C(C(N)=O)C(=O)[C@@]3(O)C(O)=C1C2=O [NJ]	> 4	< 4
CN(C)c1cc(N2CCCCC2)c(O)c2c1C[C@H]1C[C@H]3[C@H](N(C)C)C(O)=C(C(N)=O)C(=O)[C@@]3(O)C(O)=C1C2=O [NK]	> 4	> 4
CN(C)[C@@H]1C(O)=C(C(N)=O)C(=O)[C@@]2(O)C(O)=C3C(=O)c4c(O)ccc(-c5cncnc5)c4C[C@H]3C[C@@H]12 [NL]	< 4	< 4
CN(C)c1cc(C=O)c(O)c2c1C[C@H]1C[C@H]3[C@@H](N(C)C)C(O)=C(C(N)=O)C(=O)[C@@]3(O)C(O)=C1C2=O [NM]	< 4	< 4
CC(C)c1ccc(CNc2cc(N(C)C)c3c(c2O)C(=O)C2=C(O)[C@]4(O)C(=O)C(C(N)=O)=C(O)[C@@H](N(C)C)[C@@H]4C[C@@H]2C3)cc1 [NN]	> 4	< 4
CN(C)[C@@H]1C(O)=C(C(N)=O)C(=O)[C@@]2(O)C(O)=C3C(=O)c4c(O)ccc(C=CC#N)c4C[C@H]3C[C@@H]12 [NO]	< 4	< 4
